Columns and labels:
Settings in all cases: 72 h
HCC1937 [1] = tested on: HCC1937
Outline: (§1)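 The plates used were 384-well plates holding compound at 5 concentrations in 10-fold steps across a compound-specific 10,000-fold range, into which breast cancer cell lines were seeded in 20 µl suspension. Following 72 h incubation, CellTox Green fluorescence was read at 485/520 nm, and CellTiter-Glo luminescence was read after 10 min at room temperature. Normalisation on each plate used 0.1 % DMSO and a positive kill control. Dose-response curves gave the EC50, which was censored at the top concentration.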

MDA-MB-468 [2] = tested on: MDA-MB-468
Outline: as §1

BT-549 [3] = tested on: BT-549
Outline: as §1

MDA-MB-453 [4] = tested on: MDA-MB-453
Outline: as §1

MFM-223 [5] = tested on: MFM-223
Outline: as §1

CAL-85-1 [6] = tested on: CAL-85-1
Outline: as §1

Hs578T [7] = tested on: Hs578T
Outline: as §1

HCC1143 [8] = tested on: HCC1143
Outline: as §1

MDA-MB-436 [9] = tested on: MDA-MB-436
Outline: as §1

SK-BR-3 [10] = tested on: SK-BR-3
Outline: as §1

HDQ-P1 [11] = tested on: HDQ-P1
Outline: as §1

CAL-51 [12] = tested on: CAL-51
Outline: as §1

CAL-148 [13] = tested on: CAL-148
Outline: as §1

DU-4475 [14] = tested on: DU-4475
Outline: as §1

CAL-120 [15] = tested on: CAL-120
Outline: as §1

BT-474 = tested on: BT-474
Outline: as §1

HCC1599 = tested on: HCC1599
Outline: (§2)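 Rows with a drug sensitivity score of zero were dropped, and EC50 was taken from the fitted percent-inhibition dose-response curve, censored at the highest concentration. Data were normalised on each plate to vehicle and a positive kill control and checked by Z'-factor. The assay seeded breast cancer cell lines in 20 µl onto 384-well plates pre-loaded with compound in 5 µl medium for 72 h, then added 2.5 µl CellTiter-Blue for 2 h at 37 °C and read fluorescence at 560/590 nm.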

HCC1937 [16] = tested on: HCC1937; remark: listed apart in the source
Outline: as §2

MDA-MB-468 [17] = tested on: MDA-MB-468; remark: listed apart in the source
Outline: as §2

BT-549 [18] = tested on: BT-549; remark: listed apart in the source
Outline: as §2

MFM-223 [19] = tested on: MFM-223; remark: listed apart in the source
Outline: as §2

Hs578T [20] = tested on: Hs578T; remark: listed apart in the source
Outline: as §2

HCC1143 [21] = tested on: HCC1143; remark: listed apart in the source
Outline: as §2

SK-BR-3 [22] = tested on: SK-BR-3; remark: listed apart in the source
Outline: as §2

CAL-120 [23] = tested on: CAL-120; remark: listed apart in the source
Outline: as §2

HCC1937 [24] = tested on: HCC1937; remark: listed apart in the source
Experimental: (§3)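 Drug sensitivity and resistance testing (DSRT) of breast cancer cell lines in 384-well plates, 5 concentrations in 10-fold dilutions over a compound-specific 10,000-fold range. After 72 h, cytotoxicity was read by CellTox Green fluorescence and viability by CellTiter-Glo luminescence (multiplexed), normalised to DMSO and benzethonium chloride controls. EC50 is the inflection point of the fitted dose-response curve (bottom asymptote free, so it can be relative for partial curves) and is censored at the highest tested concentration. Rows with DSS 0 (no meaningful response) were excluded.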

MDA-MB-453 [25] = tested on: MDA-MB-453; remark: listed apart in the source
Outline: as §2

CAL-85-1 [26] = tested on: CAL-85-1; remark: listed apart in the source
Outline: as §2

HDQ-P1 [27] = tested on: HDQ-P1; remark: listed apart in the source
Outline: as §2

CAL-51 [28] = tested on: CAL-51; remark: listed apart in the source
Outline: as §2

CAL-148 [29] = tested on: CAL-148; remark: listed apart in the source
Outline: as §2

DU-4475 [30] = tested on: DU-4475; remark: listed apart in the source
Outline: as §2

MDA-MB-436 [31] = tested on: MDA-MB-436; remark: listed apart in the source
Outline: as §2

MDA-MB-453 [32] = tested on: MDA-MB-453; remark: listed apart in the source
Experimental: as §3

| EC50, CellTiter-Glo (HCC1937 [1]) | EC50, CellTiter-Glo (MDA-MB-468 [2]) | EC50, CellTiter-Glo (BT-549 [3]) | EC50, CellTiter-Glo (MDA-MB-453 [4]) | EC50, CellTiter-Glo (HCC1143 [8]) | EC50, CellTiter-Glo (MDA-MB-436 [9]) | EC50, CellTiter-Glo (SK-BR-3 [10]) | EC50, CellTiter-Glo (BT-474) | EC50, CellTiter-Blue viability (HCC1599) | EC50, CellTiter-Blue viability (HCC1937 [16]) | EC50, CellTiter-Blue viability (MDA-MB-468 [17]) | EC50, CellTiter-Blue viability (BT-549 [18]) | EC50, CellTiter-Blue viability (HCC1143 [21]) | EC50, CellTiter-Blue viability (SK-BR-3 [22]) | EC50, CellTiter-Blue viability (MDA-MB-453 [25]) | EC50, CellTiter-Blue viability (MDA-MB-436 [31]) | Structure (SMILES) | EC50, CellTiter-Glo (MFM-223 [5]) | EC50, CellTiter-Glo (CAL-85-1 [6]) | EC50, CellTiter-Glo (Hs578T [7]) | EC50, CellTiter-Glo (HDQ-P1 [11]) | EC50, CellTiter-Glo (CAL-51 [12]) | EC50, CellTiter-Glo (CAL-148 [13]) | EC50, CellTiter-Glo (DU-4475 [14]) | EC50, CellTiter-Glo (CAL-120 [15]) | EC50, CellTiter-Blue viability (MFM-223 [19]) | EC50, CellTiter-Blue viability (Hs578T [20]) | EC50, CellTiter-Blue viability (CAL-120 [23]) | EC50, CellTox Green (HCC1937 [24]) | EC50, CellTiter-Blue viability (CAL-85-1 [26]) | EC50, CellTiter-Blue viability (HDQ-P1 [27]) | EC50, CellTiter-Blue viability (CAL-51 [28]) | EC50, CellTiter-Blue viability (CAL-148 [29]) | EC50, CellTiter-Blue viability (DU-4475 [30]) | EC50, CellTox Green (MDA-MB-453 [32]) |
| --- | --- | --- | --- | --- | --- | --- | --- | --- | --- | --- | --- | --- | --- | --- | --- | --- | --- | --- | --- | --- | --- | --- | --- | --- | --- | --- | --- | --- | --- | --- | --- | --- | --- | --- |
| 6.4 nM | 0.65 nM | 1.85 nM | 4.84 nM | 3.09 nM | 2.96 nM | 4.12 nM | 3.4 nM | 1.57 nM | 0.16 nM | 0.26 nM | 0.2 nM | 1.33 nM | 3.42 nM | 0.71 nM | – | CO[C@H]1C[C@@H]2CC[C@@H](C)[C@@](O)(O2)C(=O)C(=O)N2CCCC[C@H]2C(=O)O[C@H]([C@H](C)C[C@@H]2CC[C@@H](O)[C@H](OC)C2)CC(=O)[C@H](C)/C=C(\C)[C@@H](O)[C@@H](OC)C(=O)[C@H](C)C[C@H](C)/C=C/C=C/C=C/1C [Sirolimus] | 3.87 nM | 0.95 nM | 1.24 nM | 7.92 nM | 2.33 nM | 3.6 nM | 16.1 nM | 3.4 nM | 0.18 nM | 0.14 nM | 1.32 nM | 98.7 nM | 0.46 nM | 0.55 nM | 0.79 nM | 1.13 nM | 1.24 nM | – |
| > 10000 nM | – | – | 2560 nM | – | – | > 10000 nM | – | – | – | 4420 nM | 3420 nM | – | – | 5970 nM | 7520 nM | CC/C(=C(\c1ccccc1)c1ccc(OCCN(C)C)cc1)c1ccccc1 [Tamoxifen] | 3370 nM | – | – | – | 233 nM | – | – | > 10000 nM | – | – | – | 325 nM | – | – | – | – | – | 7240 nM |

Reference: the supplement of paper PMC4862054
